Results taken from patent publication US20210047304A1, “Bromodomain Inhibitors” (AbbVie Inc., priority 2016, published 2021).

Biological target: BRD4 (BDI_K57-E168) (Homo sapiens, UniProt O60885)
Assay: TR-FRET bromodomain binding assay, BRD4 BDI

Ki [nM]	Structure (SMILES)
1950	COCCN(C(=O)C1(C)CC1)[C@H]1CC[C@H](Oc2cc(=O)n(C)cc2-c2cc(C(C)(C)O)ccc2Oc2c(C)cc(F)cc2C)CC1 [Example 64, N-[trans-4-({5-[2-(4-fluoro-2,6-dimethylphenoxy)-5-(2-hydroxypropan-2-yl)phenyl]-1-methyl-2-oxo-1,2-dihydropyridin-4-yl}oxy)cyclohexyl]-N-(2-methoxyethyl)-1-methylcyclopropane-1-carboxamide]
2220	Cc1cc(F)cc(C)c1Oc1ccc(C(C)(C)O)cc1-c1cn(C)c(=O)cc1O[C@H]1CC[C@H](N2CCCCC2=O)CC1 [Example 29, 5-[2-(4-fluoro-2,6-dimethylphenoxy)-5-(2-hydroxypropan-2-yl)phenyl]-1-methyl-4-{[trans-4-(2-oxopiperidin-1-yl)cyclohexyl]oxy}pyridin-2(1H)-one]
> 13000	CC(=O)NC1CCC(C)(Oc2cc(=O)n(C)cc2-c2cc(C(C)(C)O)ccc2Oc2c(C)cc(F)cc2C)CC1 (stereo not drawn) [Example 84, N-[trans-4-({5-[2-(4-fluoro-2,6-dimethylphenoxy)-5-(2-hydroxypropan-2-yl)phenyl]-1-methyl-2-oxo-1,2-dihydropyridin-4-yl}oxy)-4-methylcyclohexyl]acetamide]
1440	COCC(=O)N[C@H]1CC[C@H](Oc2cc(=O)n(C)cc2-c2cc(C(C)(C)O)ccc2Oc2c(C)cc(F)cc2C)CC1 [Example 53, N-[trans-4-({5-[2-(4-fluoro-2,6-dimethylphenoxy)-5-(2-hydroxypropan-2-yl)phenyl]-1-methyl-2-oxo-1,2-dihydropyridin-4-yl}oxy)cyclohexyl]-2-methoxyacetamide]
1450	COC(=O)N[C@H]1CC[C@H](Oc2cc(=O)n(C)cc2-c2cc(C(C)(C)O)ccc2Oc2c(C)cc(F)cc2C)CC1 [Example 4, methyl [trans-4-({5-[2-(4-fluoro-2,6-dimethylphenoxy)-5-(2-hydroxypropan-2-yl)phenyl]-1-methyl-2-oxo-1,2-dihydropyridin-4-yl}oxy)cyclohexyl]carbamate]
720	CC(=O)NC[C@H]1C[C@H](Oc2cc(=O)n(C)cc2-c2cc(C(C)(C)O)ccc2Oc2c(C)cc(F)cc2C)C1 [Example 6, N-{[trans-3-({5-[2-(4-fluoro-2,6-dimethylphenoxy)-5-(2-hydroxypropan-2-yl)phenyl]-1-methyl-2-oxo-1,2-dihydropyridin-4-yl}oxy)cyclobutyl]methyl}acetamide]
6060	CNC(=O)N(C)Cc1ccc(Oc2c(C)cccc2C)c(-c2cn(C)c(=O)cc2O[C@H]2CC[C@H](NC(=O)C3(C)CC3)CC2)c1 [Example 113, N-[trans-4-({5-[2-(2,6-dimethylphenoxy)-5-{[methyl(methylcarbamoyl)amino]methyl}phenyl]-1-methyl-2-oxo-1,2-dihydropyridin-4-yl}oxy)cyclohexyl]-1-methylcyclopropane-1-carboxamide]
9530	Cc1cc(F)cc(C)c1Oc1ccc(C(C)(C)O)cc1-c1cn(C)c(=O)cc1O[C@H]1C[C@@H](C(=O)O)C1 [Example 97, cis-3-({5-[2-(4-fluoro-2,6-dimethylphenoxy)-5-(2-hydroxypropan-2-yl)phenyl]-1-methyl-2-oxo-1,2-dihydropyridin-4-yl}oxy)cyclobutane-1-carboxylic acid]
4090	Cc1cc(F)cc(C)c1Oc1ccc(C(C)(C)O)cc1-c1cn(C)c(=O)cc1O[C@H]1CC[C@H](n2ncccc2=O)CC1 [Example 141, 2-[trans-4-({5-[2-(4-fluoro-2,6-dimethylphenoxy)-5-(2-hydroxypropan-2-yl)phenyl]-1-methyl-2-oxo-1,2-dihydropyridin-4-yl}oxy)cyclohexyl]pyridazin-3(2H)-one]
3630	Cc1cc(F)cc(C)c1Oc1ccc(C(C)(C)O)cc1-c1cn(C)c(=O)cc1NC1CCC(C)(O)CC1 (stereo not drawn) [Example 23, 5-[2-(4-fluoro-2,6-dimethylphenoxy)-5-(2-hydroxypropan-2-yl)phenyl]-4-[(trans-4-hydroxy-4-methylcyclohexyl)amino]-1-methylpyridin-2(1H)-one]
11200	Cc1cc(F)cc(C)c1Oc1ccc(C(C)(C)O)cc1-c1cn(C)c(=O)cc1O[C@H]1CC[C@H](N2C(=O)NC(C)(C)C2=O)CC1 [Example 140, 3-[trans-4-({5-[2-(4-fluoro-2,6-dimethylphenoxy)-5-(2-hydroxypropan-2-yl)phenyl]-1-methyl-2-oxo-1,2-dihydropyridin-4-yl}oxy)cyclohexyl]-5,5-dimethylimidazolidine-2,4-dione]
> 13000	Cc1cc(F)cc(C)c1Oc1ccc(C(C)(C)O)cc1-c1cn(C)c(=O)cc1O[C@H]1CC[C@H](N2C(=O)c3ccccc3C2=O)CC1 [Example 43, 2-[trans-4-({5-[2-(4-fluoro-2,6-dimethylphenoxy)-5-(2-hydroxypropan-2-yl)phenyl]-1-methyl-2-oxo-1,2-dihydropyridin-4-yl}oxy)cyclohexyl]-1H-isoindole-1,3(2H)-dione]
12200	Cc1cc(F)cc(C)c1Oc1ccc(C(C)(C)O)cc1-c1cn(C)c(=O)cc1O[C@H]1CC[C@H](C(=O)O)CC1 [Example 61, trans-4-({5-[2-(4-fluoro-2,6-dimethylphenoxy)-5-(2-hydroxypropan-2-yl)phenyl]-1-methyl-2-oxo-1,2-dihydropyridin-4-yl}oxy)cyclohexane-1-carboxylic acid]

Continued, molecule first:

Structure (SMILES)	Ki [nM]
Cc1cc(F)cc(C)c1Oc1ccc(C(C)(C)O)cc1-c1cn(C)c(=O)cc1O[C@H]1CC[C@H](NS(C)(=O)=O)CC1 [Example 46, N-[trans-4-({5-[2-(4-fluoro-2,6-dimethylphenoxy)-5-(2-hydroxypropan-2-yl)phenyl]-1-methyl-2-oxo-1,2-dihydropyridin-4-yl}oxy)cyclohexyl]methanesulfonamide]	5450
CC(=O)N[C@H]1CC[C@H](Oc2cc(=O)n(C)cc2-c2cc(C(C)(C)O)ccc2Oc2c(C)cc(F)cc2C)CC1 [Example 3, N-[trans-4-({5-[2-(4-fluoro-2,6-dimethylphenoxy)-5-(2-hydroxypropan-2-yl)phenyl]-1-methyl-2-oxo-1,2-dihydropyridin-4-yl}oxy)cyclohexyl]acetamide]	1020
Cc1cc(F)cc(C)c1Oc1ccc(C(C)(C)O)cc1-c1cn(C)c(=O)cc1O[C@H]1CC[C@H](NC(=O)C2(CNC(=O)OC(C)(C)C)CC2)CC1 [Example 104, tert-butyl [(1-{[trans-4-({5-[2-(4-fluoro-2,6-dimethylphenoxy)-5-(2-hydroxypropan-2-yl)phenyl]-1-methyl-2-oxo-1,2-dihydropyridin-4-yl}oxy)cyclohexyl]carbamoyl}cyclopropyl)methyl]carbamate]	> 13000
Cc1cc(F)cc(C)c1Oc1ccc(C(C)(C)O)cc1-c1cn(C)c(=O)cc1O[C@H]1CC[C@H](N2C(=O)CCC(C)(C)C2=O)CC1 [Example 89, 1-[trans-4-({5-[2-(4-fluoro-2,6-dimethylphenoxy)-5-(2-hydroxypropan-2-yl)phenyl]-1-methyl-2-oxo-1,2-dihydropyridin-4-yl}oxy)cyclohexyl]-3,3-dimethylpiperidine-2,6-dione]	> 13000
CC(=O)C(=O)N[C@H]1CC[C@H](Oc2cc(=O)n(C)cc2-c2cc(C(C)(C)O)ccc2Oc2c(C)cc(F)cc2C)CC1 [Example 56, N-[trans-4-({5-[2-(4-fluoro-2,6-dimethylphenoxy)-5-(2-hydroxypropan-2-yl)phenyl]-1-methyl-2-oxo-1,2-dihydropyridin-4-yl}oxy)cyclohexyl]-2-oxopropanamide]	2430
Cc1cc(F)cc(C)c1Oc1ccc(C(C)(C)O)cc1-c1cn(C)c(=O)cc1O[C@H]1CC[C@H](N2CCCN(C)C2=O)CC1 [Example 41, 1-[trans-4-({5-[2-(4-fluoro-2,6-dimethylphenoxy)-5-(2-hydroxypropan-2-yl)phenyl]-1-methyl-2-oxo-1,2-dihydropyridin-4-yl}oxy)cyclohexyl]-3-methyltetrahydropyrimidin-2(1H)-one]	2480
Cc1cc(F)cc(C)c1Oc1ccc(C(C)(C)O)cc1-c1cn(C)c(=O)cc1O[C@H]1CC[C@H](N2C(=O)N[C@H](C(C)C)C2=O)CC1 [Example 131, (5R)-3-[trans-4-({5-[2-(4-fluoro-2,6-dimethylphenoxy)-5-(2-hydroxypropan-2-yl)phenyl]-1-methyl-2-oxo-1,2-dihydropyridin-4-yl}oxy)cyclohexyl]-5-(propan-2-yl)imidazolidine-2,4-dione]	6320
Cc1cc(F)cc(C)c1Oc1ccc(C(C)(C)O)cc1-c1cn(C)c(=O)cc1O[C@H]1CC[C@H](C#N)CC1 [Example 69, trans-4-({5-[2-(4-fluoro-2,6-dimethylphenoxy)-5-(2-hydroxypropan-2-yl)phenyl]-1-methyl-2-oxo-1,2-dihydropyridin-4-yl}oxy)cyclohexane-1-carbonitrile]	7250
Cc1cc(F)cc(C)c1Oc1ccc(C(C)(C)O)cc1-c1cn(C)c(=O)cc1O[C@H]1CC[C@H](NC(=O)C(C)(C)N)CC1 [Example 139, N-[trans-4-({5-[2-(4-fluoro-2,6-dimethylphenoxy)-5-(2-hydroxypropan-2-yl)phenyl]-1-methyl-2-oxo-1,2-dihydropyridin-4-yl}oxy)cyclohexyl]-2-methylalaninamide]	645
CC(=O)N[C@H]1CC[C@H](Oc2cc(=O)n(C)cc2-c2cc(C(C)(C)O)cnc2Oc2c(C)cc(C(C)(C)O)cc2C)CC1 [Example 17, N-[trans-4-({5′-(2-hydroxypropan-2-yl)-2′-[4-(2-hydroxypropan-2-yl)-2,6-dimethylphenoxy]-1-methyl-6-oxo[1,6-dihydro[3,3′-bipyridine]]-4-yl}oxy)cyclohexyl]acetamide]	1170
Cc1cc(F)cc(C)c1Oc1ccc(C(C)(C)O)cc1-c1cn(C)c(=O)cc1O[C@H]1CC[C@H](C(C)(C)O)CC1 [Example 67, 5-[2-(4-fluoro-2,6-dimethylphenoxy)-5-(2-hydroxypropan-2-yl)phenyl]-4-{[trans-4-(2-hydroxypropan-2-yl)cyclohexyl]oxy}-1-methylpyridin-2(1H)-one]	2830
CCOC(=O)CC(=O)N[C@H]1CC[C@H](Oc2cc(=O)n(C)cc2-c2cc(C(C)(C)O)ccc2Oc2c(C)cc(F)cc2C)CC1 [Example 55, ethyl 3-{[trans-4-({5-[2-(4-fluoro-2,6-dimethylphenoxy)-5-(2-hydroxypropan-2-yl)phenyl]-1-methyl-2-oxo-1,2-dihydropyridin-4-yl}oxy)cyclohexyl]amino}-3-oxopropanoate]	1870
